Data: US4782092A, “5,8-dichloro-4-hydroxy-1-[(aminoalkyl) amino]-9,10-anthracenediones, pharmaceutical compositions and use” (Mid-America Cancer Center, priority 1986, dated 1988)
Several values for one entry are separate records, joined by “and”; a condition that tells them apart may be missing. Equal entries are not always repeated. Where two headings read alike, the source gives them in different places. Blank lines part the entries; values can stand above or below the compound they belong to.

Tests used:
[1] = test system: Alcaligenes viscolactis (ATCC-21698); experiment: in vitro antibacterial/antifungal (ABF) agar-disk diffusion assay, Alcaligenes viscolactis; assay type: cell-based; conditions: read-out: Inhibition Zone Diameter
Description: (§1) One test protocol is the in vitro antibacterial/antifungal (ABF) test. Compounds are tested for antimicrobial activity in an agar-disk diffusion assay, a standard microbiological technique for testing antibiotics. After incubation of each culture with a test compound, a zone of inhibition is determined. The zone diameter (mm) of active compounds ranges from a minimum of 14 mm to as high as 18 mm, with a greater diameter reflecting higher activity. For convenience, values are reported for three gram-negative bacterial species, Alcaligenes viscolactis ATCC 21698, Escherichia coli Tol and PD04863, Branhamella catarrhalis PD03596; and one gram-positive bacterium, Bacillus subtilis PD04555.

[2] = test system: Escherichia coli Tol; experiment: in vitro antibacterial/antifungal (ABF) agar-disk diffusion assay, Escherichia coli Tol; assay type: cell-based; conditions: read-out: Inhibition Zone Diameter
Description: as §1

[3] = test system: Escherichia coli PD08463; experiment: in vitro antibacterial/antifungal (ABF) agar-disk diffusion assay, Escherichia coli PD08463; assay type: cell-based; conditions: 5.0 mg/ml, read-out: Inhibition Zone Diameter
Description: as §1

[4] = test system: Branhamella catarrhalis PD03596; experiment: in vitro antibacterial/antifungal (ABF) agar-disk diffusion assay, Branhamella catarrhalis; assay type: cell-based; conditions: Moraxella catarrhalis, 5.0 mg/ml, read-out: Inhibition Zone Diameter
Description: as §1

[5] = test system: Bacillus subtilis PD04555; experiment: in vitro antibacterial/antifungal (ABF) agar-disk diffusion assay, Bacillus subtilis; assay type: cell-based; conditions: read-out: Inhibition Zone Diameter
Description: as §1

[6] = test system: L1210 Leukemia; experiment: growth-inhibitory effects against mouse tumor line L1210 in suspension cell culture; assay type: cell-based; conditions: L1210, 72 h
Description: In another test protocol, growth-inhibitory effects are measured against the mouse tumor line L1210 in suspension cell culture. Cell cultures were initiated at a density of 50,000 cells/ml in medium RPMI […] supplemented with 10 percent fetal calf serum. Composition of this culture medium and details of the culture procedure follow the published method (Journal of the National Cancer Institute 36, 405-415, 1966). Cultures are maintained at 37 degrees in stationary suspension culture under a 95 percent air +5 percent CO2 atmosphere. Test compounds are added to treated cultures at the time of initiation, and are present continually. After 72 hours, 40-fold dilutions of drug-treated and untreated control cultures are prepared in 0.9 percent NaCl solution, and cells are counted on an electronic particle counter. The growth-inhibitory effects are expressed as ID50 values, namely test compound inhibitory dosages or concentrations required to decrease cell count in treated cultures to 50 percent of the cell count of untreated control cultures.

[7] = test system: P388 Leukemia; experiment: in vivo lymphocytic leukemia P388 test; set-up: species or system mice (CD2 F1); conditions: IP/IP, QOID × 5
Description: Another test protocol is the in vivo lymphocytic leukemia P388 test. The animals used are either male or female CD2 F1 mice, six or seven animals per test group. The tumor transplant is by intraperitoneal injection of dilute ascitic fluid containing cells of lymphocytic leukemia P388. The test compounds are administered intraperitoneally once daily for five consecutive days at various doses following tumor inoculation. The animals are weighed and survivors are recorded on a regular basis for 30 days. A compound is designated "toxic" if, at a given dose, all animals died prior to four days after the first injection of drug. A ratio of survival time for treated (T)/control (C) animals is calculated. A criterion for efficacy is a ratio T/C times 100 greater than or equal to 125. See Cancer Chemotherapy Reports, Part 3, 3, 1 (1972) for a comprehensive discussion of the protocol.

[8] = test system: B16 Melanoma; experiment: solid tumor B16 melanoma in mice; assay type: in vivo, mice (B6C3F1); conditions: IP/IP, QOID × 9
Description: Another test protocol utilizes the solid tumor B16 melanoma in mice. The tumor is inoculated by intraperitoneal injection. The test compounds are administered intraperitoneally once daily for nine consecutive days at various doses following tumor inoculation. A ratio of survival time for treated (T)/control (C) animals is calculated. A criterion for efficacy is a ratio T/C times 100 greater than or equal to […]. See Cancer Therapy Reviews, 7,167(1980) and references cited therein for further details and interpretation of the test.
*Procedure described in Cancer Chemotherapy Reviews, 7, 167 (1980) and
references cited therein.

[9] = Test 1, read-out: Molar Concentration Required for 50% Inhibition of Growth (ID50)
[10] = Test 2, read-out: Molar Concentration Required for 50% Inhibition of Growth (ID50)
[11] = 25 mg/kg, listed as 5,8-Dichloro-4-hydroxy-1-[ [2-[(2-hydroxyethyl)aminoethyl]amino]-7,10-anthracene
[12] = 50 mg/kg, listed as 5,8-Dichloro-4-hydroxy-1-[ [2-[(2-hydroxyethyl)aminoethyl]amino]-7,10-anthracene
[13] = 100 mg/kg, listed as 5,8-Dichloro-4-hydroxy-1-[ [2-[(2-hydroxyethyl)aminoethyl]amino]-7,10-anthracene

Compound: O=C1c2c(O)ccc(NCCNCCO)c2C(=O)c2c(Cl)ccc(Cl)c21 [5,8-dichloro-4-hydroxy-1-[[2-[(2-hydroxyethyl)aminoethyl]amino]]-9,10-anthracenedione]
zone of inhibition at 1000 µg/mL ([1]; ATCC21698, 1.0 mg/ml): 14 mm | zone of inhibition at 5000 µg/mL ([1]; ATCC21698, 5.0 mg/ml): 15 mm | zone of inhibition at 1000 µg/mL ([2]; 1.0 mg/ml): 15 mm | zone of inhibition at 5000 µg/mL ([2]; 5.0 mg/ml): 18 mm | zone of inhibition at 5000 µg/mL [3]: 14 mm | zone of inhibition at 5000 µg/mL [4]: 14 mm | zone of inhibition at 1000 µg/mL ([5]; 1.0 mg/ml): 14 mm | zone of inhibition at 5000 µg/mL ([5]; 5.0 mg/ml): 16 mm | IC50 [6, 9]: 86.6 nM | IC50 [6, 10]: 111 nM | T/C × 100 ([7]; 6.25 mg/kg): 154% | T/C × 100 ([7]; 12.5 mg/kg): 146% | cures ([7]; 25 mg/kg): cures | T/C × 100 [7, 11]: 242% and 163% | T/C × 100 [7, 12]: 175% and 188% and 177% | T/C × 100 [7, 13]: 235% and 202% | T/C × 100 ([8]; 6.25 mg/kg): 166% | T/C × 100 ([8]; 12.5 mg/kg): 172% | cures ([8]; 12.5 mg/kg): cures | T/C × 100 ([8]; 20 mg/kg): 224% | cures ([8]; 25 mg/kg): cures | T/C × 100 [8, 11]: 199% and 130% | T/C × 100 ([8]; 40 mg/kg): 231% | cures ([8]; 40 mg/kg): cures | cures ([8]; 50 mg/kg): cures | T/C × 100 [8, 12]: 252% and 143% | T/C × 100 ([8]; 80 mg/kg): 271% | cures ([8]; 80 mg/kg): cures | cures ([8]; 100 mg/kg): cures | T/C × 100 [8, 13]: 270% and 191% | T/C × 100 ([8]; 160 mg/kg): 326% | T/C × 100 ([8]; 200 mg/kg, listed as 5,8-Dichloro-4-hydroxy-1-[ [2-[(2-hydroxyethyl)aminoethyl]amino]-7,10-anthracene): 180% and 172% | T/C × 100 ([8]; 400 mg/kg): 190%

IC50 [6, 9]: 91.9 nM | IC50 [6, 10]: 80.9 nM
Compound: CN(C)CCNc1ccc(O)c2c1C(=O)c1c(Cl)ccc(Cl)c1C2=O [5,8-dichloro-4-hydroxy-1-[2-(dimethylamino)ethyl]amino-9,10-anthracenedione]
